{"source": "patent US10285405B2", "about": "“Oil carrying particulate matter and uses thereof” (Nobactra Israel Ltd., priority 2013, dated 2019)", "key": {"[1]": {"test_system": "The tested bacteria", "experiment": "Disc diffusion method, positive control (bacterium not specified)", "format": "cell-based", "details": "positive control 3% H2O2 solution, 27° C., 48 hours", "experimental": "Bacteria were grown in nutrient broth test tubes at 27° C. for 24 hrs. The paper discs were sterilized by autoclave in preparation for the disc diffusion method. Each bacteria ([…]), was placed on Nutrient agar (NA) plates and allowed to dry for 3-5 minutes. The paper discs were saturated in 100% concentration of the oregano essential oil (20 ul), and then placed onto each NA plate freshly coated with bacteria. The positive control used was 3% H2O2 solution and the negative control was DI water. The plates were incubated at 27° C. for 48 hours. The zone of inhibition was measured by standard ruler."}, "[2]": {"test_system": "pepper plants", "experiment": "Spraying the emulsions on pepper plants for phytotoxicity symptoms", "format": "in vivo"}, "[3]": {"details": "plants sprayed with emulsion of 25% oregano oil with 5% sesame oil made with the emulsifier, data not shown"}}, "data": [{"molecule": "OO", "note": "[P. control, H2O2]", "values": [{"measurement": "Inhibition zone (mm)", "setting": "[1]", "value": 8, "unit": "mm"}]}, {"molecule": "CCCCCCCCCCCCOS(=O)(=O)[O-].[Na+]", "note": "[SDS]", "values": [{"measurement": "Phytotoxicity on pepper plants", "setting": "[2]; in vivo", "value": "phytotoxicity"}]}, {"molecule": "CCCCCCCC/C=C\\CCCCCCCC(=O)OCCOCC(OCCO)C1OCC(OCCO)C1OCCO", "note": "(centres unmarked) [Tween 80]", "values": [{"measurement": "Phytotoxicity on pepper plants", "setting": "[2]; [3]", "value": "phytotoxicity"}]}, {"molecule": "CCCCCCCCCCCCCCCCCC(=O)[O-].[Na+]", "note": "[sodium stearate, Sodium Stearate]", "values": [{"measurement": "Phytotoxicity on pepper plants", "setting": "[2]; [3]", "value": "very vital"}]}, {"molecule": "Triton X100", "values": [{"measurement": "Phytotoxicity on pepper plants", "setting": "[2]; [3]", "value": "phytotoxicity"}]}]}
